Results reported in patent US20040235086A1, “Detection of cellular contaminants in samples of non-living material” (priority 2001, published 2004).

What was measured:
Hepatocyte cells = experiment: Microcalorimetric detection of heat production on uncoupling of oxidative phosphorylation in hepatocytes; format: cell-based
Protocol: Hepatocyte cells were grown on 37 degrees Celsius with 5% CO2, Rinsed with Versene, then loosened with EDTA-trypsine and washed with PBS. Concentration was 1,88. 10e7 cells/ml or about 28 000 cells in a well.
The uncoupler CCCF was dissolved in DMSO to a stock concentration of 100 mM, the diluted to 10 mM again in DMSO, and a final working concentration of 400 μM was diluted in H2O.
A sample of hepatocytes was introduced in the adjoining recipients (hereinafter referred to as top and bottom well) of a microcalorimeter. The thermopile, which is located between the two recipients allows the measurement of a minute temperature difference between the samples in each recipient by measuring a voltage difference. Sensitivity was determined to be 15 mV/K (10.7 V/W). The following procedure was used:
adding of 1.5 μl of hepatocyte solution was added to the top and bottom well of the microcalorimeter
0.5 μl of a 100 μM solution of uncoupler was added to the bottom well, while the same volume of the buffer solution was added to the top well
At its maximum (reached after 10 min), the voltage difference between the two wells was recorded. From this value, the temperature difference and the heat production difference could be determined.

[1] = tested on: Escherichia coli bacteria
Protocol: The presence of living cells, including bacterial cells, in a sample can be detected by addition of hydrogen peroxide which will be degraded by catalase activity present in the cells, which causes heat production.
Escherichia coli bacteria were grown on 37° Celsius in Liquid Broth. Samples of bacteria are taken when growth is in the log fase and is estimated to be around 4.10e8 bacteria/ml, which corresponds to around 600 000 bacteria per well.
A 30% (w/w) hydrogen peroxide solution from Sigma was used directly.
Measurements were performed using a microcalorimeter. The top well was provided with 1.5 μl of the bacterial solution in LB, while the bottom well contained 1.5 μl LB only.
When a steady baseline was obtained (10 min) 0.5 μl of the hydrogen peroxide solution was added to each of the wells.

SMILES: N#CC(C#N)=NNc1cccc(Cl)c1 [CCCF, carbonylcyanide-3-chlorophenylhydrazone]
- maximum voltage difference between the two wells (Hepatocyte cells; 0.5 μl of 100 μM uncoupler solution added to 1.5 μl hepatocyte solution (about 28 000 cells/well), maximum reached after 10 min, vs buffer well): 800 μV
- heat production difference per cell (Hepatocyte cells; hepatocytes, based on number of cells added to each well): 3 nW
- temperature difference (voltage difference divided by sensitivity of the microcalorimeter) (Hepatocyte cells; hepatocytes, uncoupler well vs buffer well, sensitivity 15 mV/K): 50 mK

SMILES: OO [hydrogen peroxide]
- maximum temperature difference ([1]; 0.5 μl of 30% (w/w) hydrogen peroxide added to 1.5 μl E. coli in LB (around 600 000 bacteria per well) vs LB only): 400 mK
- total enthalpy change ([1]; calculated from Tmax=ΔH/2C, heat capacity 10 mJ/K after addition of hydrogen peroxide): 80 mJ
